Structures can show the parent of a compound that is named as a salt.

A short description of this data set: Pharmacokinetic evaluation in Beagles. It counts as in vivo. On the procedure:
In this study, male Beagles were selected as test animals, and LC/MS/MS method was used to quantify plasma concentrations of the test compound intravenously injected or intragastrically administered to Beagles at different time points, so as to evaluate the pharmacokinetic profile of the test drug in Beagles.
• Beagles (male, 9 to 11 kg, Jiangsu Yadong Institute of Experimental Animals Co., Ltd.).
A clarified solution or suspension of the test compound was injected into Beagles (feeding) via the tail vein (vehicle: 5% DMSO/10% Solutol/85% H2O), or intragastrically administered into Beagles (feeding). For intravenous injection, 1 mL of blood was collected from the forelimb vein at 0 h (pre-administration) and 0.083 h, 0.25 h, 0.5 h, 1 h, 2 h, 4 h, 6 h, 8 h, and 24 h after administration, and anticoagulated with EDTA-2K. The mixture was thoroughly vortexed and mixed, and centrifuged at 6000 g for 3 minutes at 2 to 8° C. For oral administration, 1 mL of blood was collected from the forelimb vein at 0 h (pre-administration) and 0.083 h, 0.25 h, 0.5 h, 1 h, 2 h, 4 h, 6 h, 8 h, and 24 h after administration, and anticoagulated with EDTA-2K. The mixture was thoroughly vortexed and mixed, and centrifuged at 6000 g for 3 minutes at 2 to 8° C. Plasma concentrations were determined by LC-MS/MS method, and relevant pharmacokinetic parameters were calculated using Phoenix WinNonlin 8.2.0 pharmacokinetic software with non-compartmental model linear-log trapezoidal method.

Where [1] appears, read: Intragastric administration (3 mg/kg).

Take `O=C1CCC(c2noc3c(NC(=O)CN4CCN(C[C@H]5CC[C@H](n6cc(NC(=O)c7cnn8ccc(N9C[C@H]%10C[C@@H]9CO%10)nc78)c(C(F)F)n6)CC5)CC4)cccc23)C(=O)N1` (some centres unmarked) [Hydrochloride of WX015]: under setting [1], the “Area under the drug-time curve (0-inf)” value amounted to 1.13 µM·h, the Peak concentration came to 0.12 µM and the “Time to peak concentration” value came out at 4.67 h. The “Area under the drug-time curve (0-inf)” value (Intravenous injection (0.5 mg/kg)) was 0.27 µM·h. Where the note is “male, beagle, dog, plasma, Intravenous injection (0.5 mg/kg)”, the clearance – broadly, the volume of plasma or blood freed of the substance per unit of time – stood at 37.5 mL/min/kg. Besides, the Vd (male, beagle, dog, plasma, Intravenous injection (0.5 mg/kg), read-out: Apparent volume of distribution) stood at 8.44 L/kg. Also, the half-life (as a rule, how long it takes for the measured level to halve) (male, beagle, dog, plasma, Intravenous injection (0.5 mg/kg), read-out: Elimination half-life (converted)) was 2.93 h. For the same molecule, the bioavailability (commonly the share of a dose that reaches the circulation, judged against a reference dose that is usually intravenous) (male, beagle, dog, plasma, oral, IV 0.5 mg/kg, intragastric 3 mg/kg, read-out: Bioavailability F) was 70.3%.

The values above are taken from patent US20250127905A1, “GLUTARIMIDE COMPOUND AND USE THEREOF” (MEDSHINE DISCOVERY INC., priority 2021, published 2025).
